Experimental data: the supplement of paper PMC10307832

Legend:
Assay in all cases: relative viability (nuclei count vs DMSO), 5 days (fraction); higher = more cells survive
XMD8-85 + Vorinostat = compound: CN1CCN(CC1)C2=CC(=C(C=C2)NC3=NC=C4C(=N3)N(C5=CC=CC=C5C(=O)N4C)C)OC [XMD8-85] + O=C(CCCCCCC(=O)Nc1ccccc1)NO [Vorinostat] (partner 1 µM)
Summary of the method: (§1)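 Cells from lung cancer lines were seeded into 1536-well plates and, one day later, dosed by pin tool. Treatments were either a single drug or a fixed dose of an anchor drug with five library-drug doses (not always all listed) in √10 steps. After 5 days, nuclei were stained in a one-step fixation (final 0.05% Triton X-100, 1% formaldehyde, 1 ug/ml Hoechst) and counted on 4× images, and relative viability is the treated-to-vehicle nuclei ratio, as the median of duplicate plates.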

4EGI-1 + Phenformin = compound: O=C(O)C(Cc1ccccc1[N+](=O)[O-])=NNc1nc(-c2ccc(Cl)c(Cl)c2)cs1 (mixture of isomers) [4EGI-1] + N=C(N)NC(=N)NCCc1ccccc1 [Phenformin] (partner 250 µM)
Summary of the method: as §1

4EGI-1 + AZD7762 = compound: O=C(O)C(Cc1ccccc1[N+](=O)[O-])=NNc1nc(-c2ccc(Cl)c(Cl)c2)cs1 (mixture of isomers) [4EGI-1] + NC(=O)Nc1cc(-c2cccc(F)c2)sc1C(=O)N[C@H]1CCCNC1 [AZD7762] (partner 0.2 µM)
Summary of the method: as §1

XMD8-85 + Bortezomib = compound: CN1CCN(CC1)C2=CC(=C(C=C2)NC3=NC=C4C(=N3)N(C5=CC=CC=C5C(=O)N4C)C)OC [XMD8-85] + CC(C)C[C@H](NC(=O)[C@H](Cc1ccccc1)NC(=O)c1cnccn1)B(O)O [Bortezomib] (partner 0.002 µM)
Summary of the method: as §1

Cell Line | relative viability (XMD8-85 + Vorinostat; first compound 0.08 µM) | relative viability (XMD8-85 + Vorinostat; first compound 0.253 µM) | relative viability (XMD8-85 + Vorinostat; first compound 0.8 µM) | relative viability (XMD8-85 + Vorinostat; first compound 2.53 µM) | relative viability (XMD8-85 + Vorinostat; first compound 8 µM) | relative viability (4EGI-1 + Phenformin; first compound 0.5 µM) | relative viability (4EGI-1 + Phenformin; first compound 5 µM) | relative viability (4EGI-1 + Phenformin; first compound 15.81 µM) | relative viability (4EGI-1 + Phenformin; first compound 50 µM) | relative viability (4EGI-1 + AZD7762; first compound 0.5 µM) | relative viability (4EGI-1 + AZD7762; first compound 1.581 µM) | relative viability (4EGI-1 + AZD7762; first compound 5 µM) | relative viability (4EGI-1 + AZD7762; first compound 15.81 µM) | relative viability (4EGI-1 + AZD7762; first compound 50 µM) | relative viability (4EGI-1 + Phenformin; first compound 1.581 µM) | relative viability (XMD8-85 + Bortezomib; first compound 0.08 µM) | relative viability (XMD8-85 + Bortezomib; first compound 0.253 µM) | relative viability (XMD8-85 + Bortezomib; first compound 0.8 µM) | relative viability (XMD8-85 + Bortezomib; first compound 2.53 µM) | relative viability (XMD8-85 + Bortezomib; first compound 8 µM)
SW 900 | 0.372 | 0.584 | 0.434 | 0.671 | 0.188 | 0.812 | 0.807 | 0.527 | 0.322 | 0.833 | 0.583 | 0.574 | 0.377 | 0.173 |  |  |  |  |  | 
UMC-11 | 0.45 | 0.367 | 0.441 | 0.296 | 0.22 | 0.384 | 0.334 | 0.28 | 0.237 |  |  |  |  |  | 0.365 | 0.538 | 0.577 | 0.903 | 0.852 | 0.373
NCI-H1944 | 0.581 |  | 0.544 | 0.594 | 0.493 | 0.206 | 0.207 | 0.185 | 0.191 | 0.626 |  | 0.604 | 0.453 | 0.212 |  |  |  |  |  | 
NCI-H1623 |  |  |  |  |  | 0.586 | 0.607 | 0.45 | 0.53 |  |  |  |  |  | 0.5 |  |  |  |  | 
NCI-H1563 |  |  |  |  |  | 0.624 | 0.602 | 0.69 | 0.55 |  |  |  |  |  | 0.613 | 0.848 | 0.855 |  | 0.839 | 0.645
NCI-H1793 |  | 0.665 | 0.63 | 0.916 | 0.497 | 0.375 | 0.418 | 0.367 | 0.297 | 0.766 | 0.41 | 0.809 | 0.276 | 0.218 | 0.47 |  |  |  |  | 
COR-L23 | 0.413 | 0.486 | 0.558 | 0.516 | 0.236 | 0.49 | 0.429 | 0.296 | 0.144 |  |  |  |  |  | 0.275 | 1.05 | 0.962 | 1.17 | 0.957 | 0.691
SW 1573 | 0.643 | 0.739 | 1.11 | 0.596 | 0.46 | 0.457 | 0.403 | 0.276 | 0.114 |  |  |  |  |  | 0.388 | 0.881 | 1.34 | 1.02 | 1.03 | 0.639
NCI-H1648 | 0.522 | 0.474 | 0.265 | 0.244 | 0.292 |  |  |  |  | 0.662 | 0.674 | 0.707 | 0.602 | 0.517 |  |  |  |  |  | 
COR-L 105 | 0.737 | 0.91 | 0.768 | 0.661 | 0.543 | 0.46 | 0.488 | 0.375 | 0.31 |  |  |  |  |  | 0.442 | 0.759 | 0.628 | 0.699 | 0.677 | 0.309
NCI-H2023 | 0.405 | 0.835 |  | 0.665 | 0.475 | 0.503 | 0.425 | 0.281 | 0.117 |  |  |  |  |  |  | 0.881 | 0.992 | 1.07 | 1.13 | 0.575
NCI-H1299 |  |  |  |  |  |  |  |  |  |  |  |  |  |  |  | 1.07 | 1.09 | 1.02 | 0.996 | 0.781
Calu-6 |  |  |  |  |  |  |  |  |  |  |  |  |  |  |  | 1.16 | 0.973 | 1.04 | 1.05 | 0.78
LK-2 | 0.25 | 0.421 | 0.271 | 0.264 | 0.206 | 0.464 | 0.639 | 0.437 | 0.0912 | 0.543 |  | 0.451 | 0.344 | 0.177 |  |  |  |  |  | 
EBC-1 |  |  |  |  |  |  |  |  |  |  |  |  |  |  |  | 0.551 | 0.472 | 0.434 | 0.297 | 0.329
A549 |  |  |  |  |  | 0.154 | 0.172 | 0.148 | 0.0933 |  |  |  |  |  |  |  |  |  |  | 
IA-LM | 0.824 | 0.731 | 0.812 | 0.662 | 0.588 |  |  |  |  |  |  |  |  |  |  | 0.814 |  | 0.836 |  | 0.163
NCI-H520 | 0.774 | 0.69 |  | 0.673 | 0.331 | 0.866 | 0.703 | 0.669 | 0.191 |  |  |  |  |  | 0.589 | 0.491 | 0.51 | 0.772 | 0.507 | 0.205
NCI-H522 | 0.936 | 0.877 | 0.918 | 0.884 | 0.654 | 0.641 | 0.676 | 0.626 | 0.551 | 0.947 | 0.71 | 0.985 | 0.874 | 0.783 | 0.548 |  |  |  |  | 
SK-MES-1 | 0.761 | 1.27 | 1.05 | 1.03 | 0.474 | 0.687 | 0.725 | 0.618 | 0.381 |  |  |  |  |  | 0.614 |  |  |  |  | 
SK-LU-1 |  |  | 0.92 | 0.9 | 0.694 | 0.653 | 0.681 | 0.632 | 0.264 |  |  |  |  |  | 0.546 | 0.93 | 0.926 |  | 1.42 | 0.84
NCI-H661 | 0.835 | 0.788 | 0.809 | 0.743 | 0.588 | 0.274 | 0.297 | 0.274 | 0.243 |  |  |  |  |  | 0.267 | 0.732 | 0.927 |  | 0.802 | 0.728
NCI-H1650 | 0.674 | 0.596 | 0.594 | 0.578 | 0.253 | 0.456 | 0.401 | 0.284 | 0.206 |  |  |  |  |  |  | 0.26 | 0.197 | 0.192 | 0.173 | 0.179
NCI-H2009 | 0.716 | 0.774 |  | 0.621 |  | 0.55 | 0.528 | 0.366 | 0.18 |  |  |  |  |  | 0.494 | 0.98 | 0.931 | 1.16 | 0.988 | 0.352
NCI-H2228 | 0.523 | 0.59 | 0.585 | 0.842 | 0.392 | 0.314 | 0.379 | 0.298 | 0.141 |  |  |  |  |  | 0.313 | 1.15 | 0.872 | 0.924 | 1.04 | 0.582
